In PubChem BioAssay (NCI):
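1) Cells in 96-well plates. 2) Compound, 48 h, 5 concentrations. 3) Linear interpolation between surrounding doses. 4) Unreached endpoint = highest concentration. GI50: concentration for 50% inhibition of growth. TGI denotes the concentration required for complete inhibition of growth.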

Assays:
Test in all cases: growth of human tumour cells (NCI), 48 h
NCI/ADR-RES ovarian = tested on: NCI/ADR-RES ovarian
SK-MEL-28 melanoma = tested on: SK-MEL-28 melanoma
SF-268 CNS = tested on: SF-268 CNS
NCI-H226 lung = tested on: NCI-H226 lung
K-562 leukemia = tested on: K-562 leukemia
OVCAR-8 ovarian = tested on: OVCAR-8 ovarian
HOP-62 NSCLC = tested on: HOP-62 NSCLC
OVCAR-3 ovarian = tested on: OVCAR-3 ovarian
NCI-H23 lung = tested on: NCI-H23 lung
OVCAR-5 ovarian = tested on: OVCAR-5 ovarian
UACC-257 melanoma = tested on: UACC-257 melanoma
SF-295 CNS = tested on: SF-295 CNS
RXF 393 renal = tested on: RXF 393 renal
TK-10 renal = tested on: TK-10 renal
786-0 renal = tested on: 786-0 renal
OVCAR-4 ovarian = tested on: OVCAR-4 ovarian
RPMI-8226 leukemia = tested on: RPMI-8226 leukemia
COLO 205 colon = tested on: COLO 205 colon
SN12C renal = tested on: SN12C renal
MOLT-4 leukemia = tested on: MOLT-4 leukemia
SK-MEL-2 melanoma = tested on: SK-MEL-2 melanoma
IGROV1 ovarian = tested on: IGROV1 ovarian
HCC-2998 colon = tested on: HCC-2998 colon
MCF7 breast = tested on: MCF7 breast
UO-31 renal = tested on: UO-31 renal
EKVX NSCLC = tested on: EKVX NSCLC
U251 CNS = tested on: U251 CNS
DU-145 prostate = tested on: DU-145 prostate
CAKI-1 renal = tested on: CAKI-1 renal
NCI-H460 lung = tested on: NCI-H460 lung
T-47D breast = tested on: T-47D breast
MDA-MB-231 breast = tested on: MDA-MB-231 breast
KM12 colon = tested on: KM12 colon
LOX IMVI melanoma = tested on: LOX IMVI melanoma
SK-MEL-5 melanoma = tested on: SK-MEL-5 melanoma
NCI-H522 lung = tested on: NCI-H522 lung
UACC-62 melanoma = tested on: UACC-62 melanoma
BT-549 breast = tested on: BT-549 breast
HOP-92 NSCLC = tested on: HOP-92 NSCLC
MDA-MB-435 = tested on: MDA-MB-435
HCT-15 colon = tested on: HCT-15 colon
SF-539 CNS = tested on: SF-539 CNS
HT29 colon = tested on: HT29 colon
SW-620 colon = tested on: SW-620 colon
A498 renal = tested on: A498 renal
CCRF-CEM leukemia = tested on: CCRF-CEM leukemia
HS 578T breast = tested on: HS 578T breast
MALME-3M melanoma = tested on: MALME-3M melanoma
A549 NSCLC = tested on: A549 NSCLC
HL-60(TB) leukemia = tested on: HL-60(TB) leukemia
ACHN renal = tested on: ACHN renal
SNB-19 CNS = tested on: SNB-19 CNS
SR leukemia = tested on: SR leukemia
SNB-75 CNS = tested on: SNB-75 CNS
M14 melanoma = tested on: M14 melanoma
PC-3 prostate = tested on: PC-3 prostate
HCT-116 colon = tested on: HCT-116 colon
SK-OV-3 ovarian = tested on: SK-OV-3 ovarian

Compound `O=C(N/N=C/c1ccc([N+](=O)[O-])o1)c1[nH]c2ccc(Br)cc2c1-c1ccccc1` has a GI50 (NCI/ADR-RES ovarian) of 234 nM, a TGI (NCI/ADR-RES ovarian) of 2830 nM and a GI50 (SK-MEL-28 melanoma) of 1170 nM. For the same compound, the TGI (SK-MEL-28 melanoma) was 7190 nM, the GI50 (SF-268 CNS) was 564 nM and the TGI (SF-268 CNS) was 11000 nM. The GI50 (NCI-H226 lung) was 306 nM, the TGI (NCI-H226 lung) was 1560 nM and the GI50 (K-562 leukemia) was 118 nM. For the same compound, the TGI (K-562 leukemia) was over 100000 nM, the GI50 (OVCAR-8 ovarian) was 241 nM and the TGI (OVCAR-8 ovarian) was 677 nM. The GI50 (HOP-62 NSCLC) was 541 nM, the TGI (HOP-62 NSCLC) was 5360 nM and the GI50 (OVCAR-3 ovarian) was 433 nM. It also gave a TGI (OVCAR-3 ovarian) of 4090 nM, a GI50 (NCI-H23 lung) of 393 nM and a TGI (NCI-H23 lung) of 4160 nM. For the same compound, the GI50 (OVCAR-5 ovarian) was 439 nM, the TGI (OVCAR-5 ovarian) was 14000 nM and the GI50 (UACC-257 melanoma) was 542 nM. For the same compound, the TGI (UACC-257 melanoma) was 4350 nM, the GI50 (SF-295 CNS) was 189 nM and the TGI (SF-295 CNS) was 1230 nM. It also gave a GI50 (RXF 393 renal) of 294 nM, a TGI (RXF 393 renal) of 1090 nM and a GI50 (TK-10 renal) of 1530 nM. It also gave a TGI (TK-10 renal) of 10100 nM, a GI50 (786-0 renal) of 367 nM and a TGI (786-0 renal) of 4750 nM. The GI50 (OVCAR-4 ovarian) was 720 nM, the TGI (OVCAR-4 ovarian) was 10500 nM and the GI50 (RPMI-8226 leukemia) was 357 nM. It also gave a TGI (RPMI-8226 leukemia) of 12800 nM, a GI50 (COLO 205 colon) of 244 nM and a TGI (COLO 205 colon) of 577 nM. It also gave a GI50 (SN12C renal) of 323 nM, a TGI (SN12C renal) of 1980 nM and a GI50 (MOLT-4 leukemia) of 356 nM. For the same compound, the TGI (MOLT-4 leukemia) was 10600 nM, the GI50 (SK-MEL-2 melanoma) was 335 nM and the TGI (SK-MEL-2 melanoma) was 1700 nM. The GI50 (IGROV1 ovarian) was 340 nM, the TGI (IGROV1 ovarian) was 10900 nM and the GI50 (HCC-2998 colon) was 367 nM. It also gave a TGI (HCC-2998 colon) of 1600 nM, a GI50 (MCF7 breast) of 110 nM and a TGI (MCF7 breast) of 5530 nM. It also gave a GI50 (UO-31 renal) of 431 nM, a TGI (UO-31 renal) of 7820 nM and a GI50 (EKVX NSCLC) of 1120 nM. For the same compound, the TGI (EKVX NSCLC) was 9140 nM, the GI50 (U251 CNS) was 303 nM and the TGI (U251 CNS) was 1560 nM. For the same compound, the GI50 (DU-145 prostate) was 406 nM, the TGI (DU-145 prostate) was 12200 nM and the GI50 (CAKI-1 renal) was 382 nM. The TGI (CAKI-1 renal) was 9370 nM, the GI50 (NCI-H460 lung) was 331 nM and the TGI (NCI-H460 lung) was 1000 nM. It also gave a GI50 (T-47D breast) of 1790 nM, a TGI (T-47D breast) of 24000 nM and a GI50 (MDA-MB-231 breast) of 288 nM. It also gave a TGI (MDA-MB-231 breast) of 1050 nM, a GI50 (KM12 colon) of 410 nM and a TGI (KM12 colon) of 11600 nM. It also gave a GI50 (LOX IMVI melanoma) of 190 nM, a TGI (LOX IMVI melanoma) of 1610 nM and a GI50 (SK-MEL-5 melanoma) of 235 nM. For the same compound, the TGI (SK-MEL-5 melanoma) was 638 nM, the GI50 (NCI-H522 lung) was 37.4 nM and the TGI (NCI-H522 lung) was 345 nM. It also gave a GI50 (UACC-62 melanoma) of 150 nM, a TGI (UACC-62 melanoma) of 2070 nM and a GI50 (BT-549 breast) of 222 nM. For the same compound, the TGI (BT-549 breast) was 694 nM, the GI50 (HOP-92 NSCLC) was 733 nM and the TGI (HOP-92 NSCLC) was 4390 nM. The GI50 (MDA-MB-435) was 111 nM, the TGI (MDA-MB-435) was 293 nM and the GI50 (HCT-15 colon) was 230 nM. It also gave a TGI (HCT-15 colon) of 987 nM, a GI50 (SF-539 CNS) of 177 nM and a TGI (SF-539 CNS) of 514 nM. For the same compound, the GI50 (HT29 colon) was 307 nM, the TGI (HT29 colon) was 1270 nM and the GI50 (SW-620 colon) was 359 nM. The TGI (SW-620 colon) was 1970 nM, the GI50 (A498 renal) was 7450 nM and the TGI (A498 renal) was 24400 nM. For the same compound, the GI50 (CCRF-CEM leukemia) was 414 nM, the TGI (CCRF-CEM leukemia) was 45800 nM and the GI50 (HS 578T breast) was 519 nM. It also gave a TGI (HS 578T breast) of 14600 nM, a GI50 (MALME-3M melanoma) of 682 nM and a TGI (MALME-3M melanoma) of 3320 nM. For the same compound, the GI50 (A549 NSCLC) was 354 nM, the TGI (A549 NSCLC) was 11800 nM and the GI50 (HL-60(TB) leukemia) was 235 nM. For the same compound, the TGI (HL-60(TB) leukemia) was 626 nM, the GI50 (ACHN renal) was 379 nM and the TGI (ACHN renal) was 6110 nM. The GI50 (SNB-19 CNS) was 337 nM, the TGI (SNB-19 CNS) was 12100 nM and the GI50 (SR leukemia) was 143 nM. For the same compound, the TGI (SR leukemia) was 9090 nM, the GI50 (SNB-75 CNS) was 216 nM and the TGI (SNB-75 CNS) was 1550 nM. The GI50 (M14 melanoma) was 274 nM, the TGI (M14 melanoma) was 1160 nM and the GI50 (PC-3 prostate) was 400 nM. It also gave a TGI (PC-3 prostate) of 6390 nM, a GI50 (HCT-116 colon) of 182 nM and a TGI (HCT-116 colon) of 980 nM. For the same compound, the GI50 (SK-OV-3 ovarian) was 501 nM and the TGI (SK-OV-3 ovarian) was 8370 nM.
